Experimental data from patent US4062948A, “Dihydromocimycin antibiotics” (Gist-Brocades N.V., priority 1970, dated 1977).
Entries after “also recorded” stand apart in the source; their conditions may differ.

Assays:
[1] = test system: same microorganisms as mocimycin; test: in vitro antimicrobial activity, comparison of the two antibiotics; assay type: cell-based
[2] = test system: microorganism causing Treponema dysentery; test: pigs infected with Treponema dysentery (Example VI); assay type: in vivo
From the text: Twenty pigs, 3 months old, were infected with the microorganism causing Treponema dysentery by administering to them feed mixed with a homogenous mixture of contents of the intestines and intestinal mucous membranes of two animals suffereing from the disease. The infected pigs were divided into four groups of five animals each and the animals were fed with the feed as a slurry diluted 1:1 with water for 1 week. The total amount of feed per animal was 1.2 kg each day and was given in two portions.
After 5 days, the first symptoms of the disease were observed from the thin faeces and confirmed by a microbiological investigation of the faeces and […] a week, the animals were treated as follows:
group 2: 100 ppm of tylosin were added to the feed;
group 3: 25ppm of dihydromocimycin were added to the feed; and
group 4: 50 ppm of dihydromocimycin were added to the feed.
The antibiotic-enriched feed was administered for a week. After that week, feed without any antibiotic was given again. Recovery from the infection was observed from the weights of the animals and from inspection samples of the faeces, macroscopically from their consistencies, and microscopically by means of a specific immuno-fluoroescence technique. During the test, one animal of each of groups 1, 3 and 4 died.
The results are shown in the following Table wherein the weights indicated are the averages at that time of the still living animals. The consistency of the faeces is indicated as follows:
+ means thin liquid; ± means thick liquid; - means normal. The results of the immuno-fluorescence technique are indicated quantitatively by indicating the number of Treponemas in the visual field: 5 means very crowded; 4 means many; 3 means about 10 Treponemas; 2 means 1 or 2 Treponemas, 1 means more visual fields necessary to find one Treponema, and - means negative.

[3] = test system: chickens; test: three-month oral toxicity in chickens; assay type: in vivo; conditions: up to 0.1% in the diet, three months
From the text: The toxicity of the antibiotic has been studied in various animals.

[4] = growth promotion in slaughter chickens (Example II); assay type: in vivo; conditions: feed additive
From the text: Slaughter chickens are given mocimycin in the form of the sodium salt obtained in Example 1, in a mixture with component of the feed (wheat flour), the amount of antibiotic in the feed (based on the weight of the feed) being as specified in the following Table, which gives the weight of the chickens after 3, 5 and 7 weeks.

[5] = dihydromocimycin 50 ppm, after 3 weeks, one symbol per animal

| Compound | in vitro activity compared with mocimycin [1] | activity relative to tylosin ([2]; administered amounts taken into account) | Weights ([2]; dihydromocimycin 25 ppm group, after 1 week (start of antibiotics)) [kg] | Weights ([2]; dihydromocimycin 25 ppm group, just before infection (baseline)) [kg] | Weights ([2]; dihydromocimycin 25 ppm, after 2 weeks) [kg] | Weights ([2]; dihydromocimycin 25 ppm, after 3 weeks) [kg] | Weights ([2]; dihydromocimycin 50 ppm group, after 1 week (start of antibiotics)) [kg] | Weights ([2]; dihydromocimycin 50 ppm group, just before infection (baseline)) [kg] | Weights ([2]; dihydromocimycin 50 ppm, after 2 weeks) [kg] | Weights ([2]; dihydromocimycin 50 ppm, after 3 weeks) [kg] | Faeces consistency [2, 5] | Immunofluorescence [2, 5] | speed of cure compared with tylosin ([2]; faeces consistency and immunofluorescence) | animals died during the test ([2]; group 3, dihydromocimycin 25 ppm) | animals died during the test ([2]; group 4, dihydromocimycin 50 ppm) | undesired pharmacological effect [3] | growth of the chickens [4] |
| --- | --- | --- | --- | --- | --- | --- | --- | --- | --- | --- | --- | --- | --- | --- | --- | --- | --- |
| CC=CC=CC1OC(O)(C(CC)C(=O)NCC=CC=C(C)C(OC)C(C)C2OC(C=CC=CC=C(C)C(=O)C3=C(O)CCNC3=O)C(O)C2O)C(O)C(O)C1(C)C (centres unmarked) [dihydromocimycin] | in many cases it shows even a better activity than mocimycin; also recorded: more active than mocimycin against many microorganisms | at least 4 times | 21.3 | 24.2 | 20.2 | 24.0 | 21.6 | 23.4 | 21.2 | 23.0 | -- +- | -- -- -- -- | cured markedly faster than the animals treated with tylosin | one | one |  |  |
| CC=CC=CC1OC(O)(C(CC)C(=O)NCC=CC=C(C)C(OC)C(C)C2OC(C=CC=CC=C(C)C(=O)c3c(O)cc[nH]c3=O)C(O)C2O)C(O)C(O)C1(C)C (centres unmarked) [mocimycin] |  |  |  |  |  |  |  |  |  |  |  |  |  |  |  | does not result in any undesired pharmacological effect | an increase in growth |
